Assay results taken from patent publication US6362167B1, “Method of blocking free radical processes which result in mediated pathology without deleterious pro-oxidant side reactions” (Natreon Inc., priority 1999, dated 2002).
Converted amounts (≈) assume the structure as drawn.

Tests used:
[1] = DPPH radical scavenging (antioxidant activity); type: biochemical; conditions: DPPH 100 μM in absolute ethyl alcohol, 20 minutes, absorbance 570 nm; mean ± SEM (n = 10 to 12)
Method: After 20 minutes, the absorbance (optical density) of the mixture was measured at a wavelength of 570 nm and compared to that of the control sample. The degree of scavenging of the DPPH radical by each test sample was calculated by comparing the absorbance of the test sample and the diluent control reaction mixture. The results are shown in Table 2 below, a lower IC value indicating a better antioxidant effect on the DPPH radical.

PBR 322 plasmid DNA = test: Prevention of DNA strand scission by hydroxyl radical from Cu(en)2-hydrogen peroxide; type: biochemical
Method: The DNA strand scission was investigated by a method published by T. Ozawa, et al [Biochem. Mol. Biol. Int. 31, 455-46, 1993]. The method consists of addition of hydrogen peroxide (30%, final concentration 25 mM) to a mixture of Cu(en)2 (final concentration 0.25 mM) and 0.5 mcg of PBR 322 plasmid DNA solution (Takara Co., Japan). The hydroxyl radical, generated from Cu(en)2-hydrogen peroxide reaction, caused DNA strand scission.

[2] = Polymerization of methylmethacrylate (MMA) to polymethylmethacrylate (PMMA) by Fenton's reagent; conditions: for Effect on polymerization of MMA→PMMA: low concentrations of ascorbic acid (1.0 mg in b63)
Method: Thus, the pro-oxidant effect of a low concentration of AA could be systemically quite dangerous due to distinct involvement of OH radicals. […] N2 was passed through the mixture for 30 min. followed by H2O2. The onset of polymerization (the induction period in minutes) was noted. Polymerization was completed in about 24 hours at 35±2° C. The resulting precipitate was collected, washed and dried at 50° C. until a constant weight was obtained (See Table 3).

[3] = DNA + OH radical + test material
[4] = 3 g sample added (so in the source)

SMILES: CC(=O)Oc1c(C)c(C)c2c(c1C)CCC(C)(CCC[C@H](C)CCC[C@H](C)CCCC(C)C)O2 (stereo partly drawn) [α-Tocopheryl acetate (TA), α-Tocopheryl acetate]
- IC50 (DPPH radical scavenging) [1]: 50.55 ± 7.03 µg/mL

SMILES: O=C1O[C@H]([C@@H](O)CO)C(O)=C1O [AA, Ascorbic acid]
- Linear form of DNA (LIN, Produced after breakage) (PBR 322 plasmid DNA; [3]): 60%
- Open circular form Of DNA (OC) (PBR 322 plasmid DNA; [3]): 40%
- Effect on DNA strand-scission by hydroxyl radicals compared to the control value (PBR 322 plasmid DNA; physiological pH, Cu(en)2 and hydrogen peroxide): accelerated
- IC50 (DPPH radical scavenging) [1]: 18.41 ± 3.88 µg/mL (≈ 105 µM)
- % Conversion of MMA → PMMA ([2]; 1 mg sample added): 78.7 ↑ %
- Induction Time ([2]; 1 mg sample added): 0 min
- Yield of PMMA ([2]; 1 mg sample added): 772 mg
- % Conversion of MMA → PMMA ([2]; 2 mg sample added): 69.8 ↑ %
- Induction Time ([2]; 2 mg sample added): 0 min
- Yield of PMMA ([2]; 2 mg sample added): 692 mg
- % Conversion of MMA → PMMA ([2]; 4 mg sample added): 44.0%
- Induction Time ([2]; 4 mg sample added): 0 min
- Yield of PMMA ([2]; 4 mg sample added): 432 mg
- % Conversion of MMA → PMMA ([2]; 5 mg sample added): 23.1%
- Induction Time ([2]; 5 mg sample added): 0 min
- Yield of PMMA ([2]; 5 mg sample added): 227 mg
- % Conversion of MMA → PMMA ([2]; 10 mg sample added): 8.4%
- Induction Time ([2]; 10 mg sample added): 0 min
- Yield of PMMA ([2]; 10 mg sample added): 83 mg
- % Conversion of MMA → PMMA [2, 4]: 68.2 ↑ %
- Induction Time [2, 4]: 0 min
- Yield of PMMA [2, 4]: 670 mg
- Effect on polymerization of MMA→PMMA [2]: significant augmentation of polymerization
- Effect on polymerization of MMA→PMMA ([2]; listed as ascorbic acid): augmented polymerization
